Experimental data as given in US20130102631A1, “NOVEL MICROBIOCIDAL DIOXIME ETHER DERIVATIVES” (SYNGENTA CROP PROTECTION LLC, priority 2010, published 2013).

Key:
Gaeumannomyces graminis = Gaeumannomyces graminis / liquid culture (take-all of cereals); assay type: cell-based; conditions: at ≦200 ppm, liquid culture PDB, inhibition of growth photometrically 4-5 days after application, read-out: control of Gaeumannomyces graminis
Method in brief: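 Mycelial fragments of the fungus in potato dextrose broth were added to wells containing compound in DMSO. Plates were incubated at 24° C, and growth inhibition was read photometrically 4-5 days after application.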

[1] = system: Phaeosphaeria nodorum (Septoria nodorum); assay: Phaeosphaeria nodorum (Septoria nodorum) / wheat / leaf disc preventative (glume blotch); assay type: in vivo; conditions: Parastagonospora nodorum, foliar, wheat leaf segments cv Kanzler, inoculated 2 days after application, assessed 5-7 days after application
Method in brief: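 Wheat cv Kanzler leaf segments on agar were sprayed with formulated compound at 200 ppm and inoculated with spores 2 days later. Incubation at 20 °C, 75% RH, 12/12 h light/dark; percent disease control versus untreated scored 5–7 days after application.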

[2] = system: Monographella nivalis (Microdochium nivale); assay: Monographella nivalis (Microdochium nivale) / liquid culture (foot rot cereals); assay type: cell-based; conditions: at ≦200 ppm, liquid culture PDB, inhibition of growth photometrically 4-5 days after application, read-out: control of Monographella nivalis
Method in brief: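 Microdochium nivale conidia in potato dextrose broth added to compound delivered in DMSO, then incubated at 24 °C. Growth inhibition measured photometrically 4-5 days after application.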

[3] = system: Puccinia recondita f. sp. tritici; assay: Puccinia recondita f. sp. tritici / wheat / leaf disc preventative (brown rust); assay type: in vivo; conditions: foliar, wheat leaf segments cv Kanzler, inoculated 1 day after application, assessed 7-9 days after application
Procedure: Puccinia recondita f. sp. Tritici/Wheat/Leaf Disc Preventative (Brown Rust): Wheat leaf segments cultivated variety (cv) Kanzler were placed on agar in 24-well plates and sprayed with formulated test compound diluted in water at an application rate of 200 ppm. The leaf disks were inoculated with a spore suspension of the fungus 1 day after application. The inoculated leaf segments were incubated at 19° C. and 75% relative humidity under a light regime of 12/12 h (light/dark) in a climate cabinet and the activity of a compound was assessed as percent disease control compared to untreated when an appropriate level of disease damage appears in untreated check leaf segments (7-9 days after application). […]-2.508; 5.561; 2.561; 2.513; 2.559; 2.556; 2.555; 2.374; 2.544; 2.537; 2.530; 2.525 (fraction B); 2.519; 2.516; 2.514; E/E-5.167; E/E-3.002; 2.512; E/E-2.507

Glomerella lagenarium = Glomerella lagenarium (Colletotrichum lagenarium) / liquid culture (anthracnose); assay type: cell-based; conditions: Colletotrichum orbiculare; at ≦200 ppm, liquid culture PDB, inhibition of growth photometrically 3-4 days after application; read-out: control of Glomerella lagenarium
Method in brief: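 Glomerella lagenarium conidia in potato dextrose broth added to test compound supplied in DMSO in microtiter wells. Plates incubated at 24° C.; growth inhibition measured photometrically 3-4 days after application.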

[4] = system: Thanatephorus cucumeris (Rhizoctonia solani); assay: Thanatephorus cucumeris (Rhizoctonia solani) / liquid culture (foot rot, damping-off); assay type: cell-based; conditions: at ≦200 ppm, liquid culture PDB, inhibition of growth photometrically 3-4 days after application, read-out: control of Thanatephorus cucumeris
Procedure: Thanatephorus cucumeris (Rhizoctonia solani)/Liquid Culture (Foot Rot, Damping-Off Mycelia fragments of a newly grown liquid culture of the fungus are directly mixed into nutrient broth (PDB potato dextrose broth). After placing a DMSO solution of the test compounds into a 96-well microtiter, the nutrient broth containing the fungal material was added. The test plates were incubated at 24° C. and the inhibition of growth was determined photometrically 3-4 days after application. […]-2.508 5.561; 2.561; P.57; 2.513; 2.559; 2.558; 2.553; 2.533; 2.530; 2.526; 2.519; 2.517; 2.516; 2.514; 2.512; 2.514

COc1cccc(/C(C)=N/OCC(C)(C)CO/N=C2\CCCc3ccc(C)nc32)n1 [Compound 2.374]
≥ 80%: inhibition of growth at up to 200 µg/mL (Gaeumannomyces graminis) | pest or weed control at 200 ppm [1] | inhibition of growth at up to 200 µg/mL [2] | pest or weed control at 200 ppm [3] | inhibition of growth at up to 200 µg/mL (Glomerella lagenarium)

C/C(=N\OCC(C)(C)CO/N=C1\CCCc2ccc(C)nc21)c1ccc2ccccc2n1 [Compound 2.512]
≥ 80%: inhibition of growth at up to 200 µg/mL [4] | inhibition of growth at up to 200 µg/mL (Gaeumannomyces graminis) | pest or weed control at 200 ppm [1] | inhibition of growth at up to 200 µg/mL [2] | pest or weed control at 200 ppm [3] | inhibition of growth at up to 200 µg/mL (Glomerella lagenarium)

C/C(=N\OCC(C)(C)CO/N=C1\CCCc2ccc(C)nc21)c1ccc2c(n1)CCCC2 [Compound 2.513]
≥ 80%: inhibition of growth at up to 200 µg/mL [4] | inhibition of growth at up to 200 µg/mL (Gaeumannomyces graminis) | pest or weed control at 200 ppm [1] | inhibition of growth at up to 200 µg/mL [2] | pest or weed control at 200 ppm [3] | inhibition of growth at up to 200 µg/mL (Glomerella lagenarium)

C/C(=N\OCCCO/N=C1\CCCc2ccc(C)nc21)c1cccc(-c2ccccc2)n1 [Compound 2.514]
≥ 80%: inhibition of growth at up to 200 µg/mL [4] | inhibition of growth at up to 200 µg/mL (Gaeumannomyces graminis) | pest or weed control at 200 ppm [1] | inhibition of growth at up to 200 µg/mL [2] | pest or weed control at 200 ppm [3] | inhibition of growth at up to 200 µg/mL (Glomerella lagenarium)

CC/C(=N\OCC(C)(C)CO/N=C1\CCCc2ccc(C)nc21)c1ccccn1 [Compound 2.516]
≥ 80%: inhibition of growth at up to 200 µg/mL [4] | inhibition of growth at up to 200 µg/mL (Gaeumannomyces graminis) | pest or weed control at 200 ppm [1] | inhibition of growth at up to 200 µg/mL [2] | pest or weed control at 200 ppm [3] | inhibition of growth at up to 200 µg/mL (Glomerella lagenarium)

C/C(=N/OCC(C)(C)CO/N=C1\CCCc2ccc(C)nc21)c1ccccn1 [Compound 2.519]
≥ 80%: inhibition of growth at up to 200 µg/mL [4] | inhibition of growth at up to 200 µg/mL (Gaeumannomyces graminis) | pest or weed control at 200 ppm [1] | inhibition of growth at up to 200 µg/mL [2] | pest or weed control at 200 ppm [3] | inhibition of growth at up to 200 µg/mL (Glomerella lagenarium)

Cc1ccc2c(n1)/C(=N/OCC(C)(C)CO/N=C/c1cccc(Oc3ccccc3)n1)CCC2 [Compound 2.530]
≥ 80%: inhibition of growth at up to 200 µg/mL [4] | pest or weed control at 200 ppm [1] | inhibition of growth at up to 200 µg/mL [2] | pest or weed control at 200 ppm [3] | inhibition of growth at up to 200 µg/mL (Glomerella lagenarium)

Cc1ccc(O)c(/C=N/OCC(C)(C)CO/N=C2\CCCc3ccc(C)nc32)n1 [Compound 2.533]
≥ 80%: inhibition of growth at up to 200 µg/mL [4] | inhibition of growth at up to 200 µg/mL (Gaeumannomyces graminis) | pest or weed control at 200 ppm [1] | inhibition of growth at up to 200 µg/mL [2] | inhibition of growth at up to 200 µg/mL (Glomerella lagenarium)

C/C(=N\OCC(C)(C)CO/N=C1\CCCc2ccc(Cl)nc21)c1cc(C)cc(C)n1 [Compound 2.555]
≥ 80%: inhibition of growth at up to 200 µg/mL (Gaeumannomyces graminis) | pest or weed control at 200 ppm [1] | inhibition of growth at up to 200 µg/mL [2] | pest or weed control at 200 ppm [3] | inhibition of growth at up to 200 µg/mL (Glomerella lagenarium)

C/C(=N\OCC(C)(C)CO/N=C1\CCCc2ccc(Oc3ccccc3)nc21)c1cc(C)cc(C)n1 [Compound 2.556]
≥ 80%: inhibition of growth at up to 200 µg/mL (Gaeumannomyces graminis) | pest or weed control at 200 ppm [1] | inhibition of growth at up to 200 µg/mL [2] | pest or weed control at 200 ppm [3] | inhibition of growth at up to 200 µg/mL (Glomerella lagenarium)

C/C(=N\OCC(C)(C)CO/N=C1\CCCc2ccc(-c3cccc(C)n3)nc21)c1cc(C)cc(C)n1 [Compound 2.559]
≥ 80%: inhibition of growth at up to 200 µg/mL [4] | inhibition of growth at up to 200 µg/mL (Gaeumannomyces graminis) | pest or weed control at 200 ppm [1] | inhibition of growth at up to 200 µg/mL [2] | pest or weed control at 200 ppm [3] | inhibition of growth at up to 200 µg/mL (Glomerella lagenarium)

C/C(=N\OCC(C)(C)CO/N=C1\CCCc2c1nc1ccccc1c2C)c1cc(C)cc(C)n1 [Compound 2.561]
≥ 80%: inhibition of growth at up to 200 µg/mL [4] | inhibition of growth at up to 200 µg/mL (Gaeumannomyces graminis) | pest or weed control at 200 ppm [1] | pest or weed control at 200 ppm [3] | inhibition of growth at up to 200 µg/mL (Glomerella lagenarium)

C/C(=N\OCC1(CO/N=C2\CCCc3c2nc2ccccc2c3C)CC1)c1cc(C)cc(C)n1 [Compound 5.561]
≥ 80%: inhibition of growth at up to 200 µg/mL [4] | inhibition of growth at up to 200 µg/mL (Gaeumannomyces graminis) | pest or weed control at 200 ppm [1] | pest or weed control at 200 ppm [3] | inhibition of growth at up to 200 µg/mL (Glomerella lagenarium)

C/C(=N\OCC(C)(C)CO/N=C1\CCCc2ccc(C)nc21)c1cccc(C)n1 [E/E-2.002]
≥ 80%: inhibition of growth at up to 200 µg/mL [4] | inhibition of growth at up to 200 µg/mL (Gaeumannomyces graminis) | pest or weed control at 200 ppm [1] | inhibition of growth at up to 200 µg/mL [2] | pest or weed control at 200 ppm [3] | inhibition of growth at up to 200 µg/mL (Glomerella lagenarium)

C/C(=N\OCC(C)(C)CO/N=C1\CCCc2ccc(C)nc21)c1cc(C)cc(C)n1 [E/E-2.168]
≥ 80%: inhibition of growth at up to 200 µg/mL [4] | inhibition of growth at up to 200 µg/mL (Gaeumannomyces graminis) | pest or weed control at 200 ppm [1] | inhibition of growth at up to 200 µg/mL [2] | pest or weed control at 200 ppm [3] | inhibition of growth at up to 200 µg/mL (Glomerella lagenarium)

Cc1cccc(/C(=N/OCC(C)(C)CO/N=C2\CCCc3ccc(C)nc32)c2ccccc2)n1 [E/E-2.474]
≥ 80%: inhibition of growth at up to 200 µg/mL [4] | inhibition of growth at up to 200 µg/mL (Gaeumannomyces graminis) | pest or weed control at 200 ppm [1] | inhibition of growth at up to 200 µg/mL [2] | pest or weed control at 200 ppm [3] | inhibition of growth at up to 200 µg/mL (Glomerella lagenarium)

Cc1ccc2c(n1)/C(=N/OCC(C)(C)CO/N=C/c1ccc3ccccc3n1)CCC2 [E/E-2.507]
≥ 80%: inhibition of growth at up to 200 µg/mL [4] | inhibition of growth at up to 200 µg/mL (Gaeumannomyces graminis) | pest or weed control at 200 ppm [1] | inhibition of growth at up to 200 µg/mL [2] | pest or weed control at 200 ppm [3] | inhibition of growth at up to 200 µg/mL (Glomerella lagenarium)

C/C(=N\OCC(C)(C)CO/N=C1\CCCc2ccc(C)nc21)c1cccc(Br)n1 [E/E-2.508]
≥ 80%: inhibition of growth at up to 200 µg/mL [4] | inhibition of growth at up to 200 µg/mL (Gaeumannomyces graminis) | pest or weed control at 200 ppm [1] | inhibition of growth at up to 200 µg/mL [2] | pest or weed control at 200 ppm [3] | inhibition of growth at up to 200 µg/mL (Glomerella lagenarium)

C=C(CO/N=C(\C)c1cccc(C)n1)CO/N=C1\CCCc2ccc(C)nc21 [E/E-3.002]
≥ 80%: inhibition of growth at up to 200 µg/mL (Gaeumannomyces graminis) | pest or weed control at 200 ppm [1] | pest or weed control at 200 ppm [3] | inhibition of growth at up to 200 µg/mL (Glomerella lagenarium)

C/C(=N\OCC1(CO/N=C2\CCCc3ccc(C)nc32)CC1)c1cc(C)cc(C)n1 [E/E-5.167]
≥ 80%: inhibition of growth at up to 200 µg/mL (Gaeumannomyces graminis) | pest or weed control at 200 ppm [1] | inhibition of growth at up to 200 µg/mL [2] | pest or weed control at 200 ppm [3] | inhibition of growth at up to 200 µg/mL (Glomerella lagenarium)
